Source: PubChem BioAssay AID2060509 (Molecular Pharmacology Branch, DTP, NCI, 2025)

Tested on: 485176-168-R4-J1-PDC spheroids with HUVEC/MSC, viability
Assay: Anticancer human tumor 485176-168-R4-J1-PDC patient-derived pancreatic adenocarcinoma cell line growth inhibition [GQUAD]
Settings: for IC50: curve of first compound; for viability, T/C: stronger effect = lower value
In short: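 Tumor cells were grown as complex spheroids with HUVEC endothelial cells and mesenchymal stem cells as stroma. G-quadruplex stabilizers were combined with targeted agents over half-log dilutions from near the clinical Cmax, or from 10 microM.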

[1] = second compound 0.0316 µM, first compound 0.0316 µM
[2] = second compound 0.0316 µM, first compound 0.316 µM
[3] = second compound 0.1 µM, first compound 0.0316 µM
[4] = second compound 0.1 µM, first compound 0.316 µM
[5] = second compound 0.316 µM, first compound 0.0316 µM
[6] = second compound 0.316 µM, first compound 0.316 µM
[7] = second compound 1 µM, first compound 0.0316 µM
[8] = second compound 1 µM, first compound 0.316 µM
[9] = second compound 3.16 µM, first compound 0.0316 µM
[10] = second compound 3.16 µM, first compound 0.316 µM
[11] = second compound 10 µM, first compound 0.0316 µM
[12] = second compound 10 µM, first compound 0.316 µM
[13] = second compound 0.0316 µM, first compound 0.1 µM
[14] = second compound 0.0316 µM, first compound 1 µM
[15] = second compound 0.0316 µM, first compound 3.16 µM
[16] = second compound 0.0316 µM, first compound 10 µM
[17] = second compound 0.1 µM, first compound 0.1 µM
[18] = second compound 0.1 µM, first compound 1 µM
[19] = second compound 0.1 µM, first compound 3.16 µM
[20] = second compound 0.1 µM, first compound 10 µM
[21] = second compound 0.316 µM, first compound 0.1 µM
[22] = second compound 0.316 µM, first compound 1 µM
[23] = second compound 0.316 µM, first compound 3.16 µM
[24] = second compound 0.316 µM, first compound 10 µM
[25] = second compound 1 µM, first compound 0.1 µM
[26] = second compound 1 µM, first compound 1 µM
[27] = second compound 1 µM, first compound 3.16 µM
[28] = second compound 1 µM, first compound 10 µM
[29] = second compound 3.16 µM, first compound 0.1 µM
[30] = second compound 3.16 µM, first compound 1 µM
[31] = second compound 3.16 µM, first compound 3.16 µM
[32] = second compound 3.16 µM, first compound 10 µM
[33] = second compound 10 µM, first compound 0.1 µM
[34] = second compound 10 µM, first compound 1 µM
[35] = second compound 10 µM, first compound 3.16 µM
[36] = second compound 10 µM, first compound 10 µM
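Also: spheroids exposed to compounds for seven days before readout.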
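For viability, T/C in this document: percent viability relative to DMSO vehicle control wells as 100%.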

CCc1c2c(nc3ccc(O)cc13)-c1cc3c(c(=O)n1C2)COC(=O)[C@]3(O)CC + CN(C)c1ccc(Nc2c3ccc(NC(=O)CCN4CCCC4)cc3nc3cc(NC(=O)CCN4CCCC4)ccc23)cc1
IC50 (second compound 0.0316 µM): 6.98 nM | IC50 (second compound 0.1 µM): 9.32 nM | IC50 (second compound 0.316 µM): 9.31 nM | IC50 (second compound 1 µM): 7.26 nM | IC50 (second compound 3.16 µM): 11.2 nM | IC50 (second compound 10 µM): 7.71 nM | viability, T/C (second compound 0.0316 µM, first compound 0.000999 µM): 87.7% | viability, T/C (second compound 0.0316 µM, first compound 0.00316 µM): 68.4% | viability, T/C (second compound 0.0316 µM, first compound 0.00999 µM): 38.3% | viability, T/C [1]: 28.5% | viability, T/C (second compound 0.0316 µM, first compound 0.0999 µM): 13.5% | viability, T/C [2]: 6% | viability, T/C (second compound 0.1 µM, first compound 0.000999 µM): 77.8% | viability, T/C (second compound 0.1 µM, first compound 0.00316 µM): 67.9% | viability, T/C (second compound 0.1 µM, first compound 0.00999 µM): 48.1% | viability, T/C [3]: 28.6% | viability, T/C (second compound 0.1 µM, first compound 0.0999 µM): 11.2% | viability, T/C [4]: 5.98% | viability, T/C (second compound 0.316 µM, first compound 0.000999 µM): 91.1% | viability, T/C (second compound 0.316 µM, first compound 0.00316 µM): 86.8% | viability, T/C (second compound 0.316 µM, first compound 0.00999 µM): 41.8% | viability, T/C [5]: 27.6% | viability, T/C (second compound 0.316 µM, first compound 0.0999 µM): 12.9% | viability, T/C [6]: 6.92% | viability, T/C (second compound 1 µM, first compound 0.000999 µM): 103% | viability, T/C (second compound 1 µM, first compound 0.00316 µM): 58% | viability, T/C (second compound 1 µM, first compound 0.00999 µM): 50.7% | viability, T/C [7]: 28.1% | viability, T/C (second compound 1 µM, first compound 0.0999 µM): 13.8% | viability, T/C [8]: 6.15% | viability, T/C (second compound 3.16 µM, first compound 0.000999 µM): 88.8% | viability, T/C (second compound 3.16 µM, first compound 0.00316 µM): 88% | viability, T/C (second compound 3.16 µM, first compound 0.00999 µM): 43.4% | viability, T/C [9]: 34.2% | viability, T/C (second compound 3.16 µM, first compound 0.0999 µM): 14.3% | viability, T/C [10]: 8.88% | viability, T/C (second compound 10 µM, first compound 0.000999 µM): 80.3% | viability, T/C (second compound 10 µM, first compound 0.00316 µM): 61% | viability, T/C (second compound 10 µM, first compound 0.00999 µM): 45.3% | viability, T/C [11]: 34.1% | viability, T/C (second compound 10 µM, first compound 0.0999 µM): 19.3% | viability, T/C [12]: 8.05%

O=C(NO)c1cnc(N2CCN(S(=O)(=O)c3ccc4ccccc4c3)CC2)nc1 + CN(C)c1ccc(Nc2c3ccc(NC(=O)CCN4CCCC4)cc3nc3cc(NC(=O)CCN4CCCC4)ccc23)cc1
IC50 (second compound 0.0316 µM): 492 nM | IC50 (second compound 0.1 µM): 472 nM | IC50 (second compound 0.316 µM): 506 nM | IC50 (second compound 1 µM): 455 nM | IC50 (second compound 3.16 µM): 538 nM | IC50 (second compound 10 µM): 377 nM | viability, T/C [1]: 92.8% | viability, T/C [13]: 84.5% | viability, T/C [2]: 74.8% | viability, T/C [14]: 10.4% | viability, T/C [15]: 0.23% | viability, T/C [16]: 0.27% | viability, T/C [3]: 85.5% | viability, T/C [17]: 92.1% | viability, T/C [4]: 70.8% | viability, T/C [18]: 10.7% | viability, T/C [19]: 0.21% | viability, T/C [20]: 0.2% | viability, T/C [5]: 112% | viability, T/C [21]: 85.6% | viability, T/C [6]: 78.5% | viability, T/C [22]: 9.79% | viability, T/C [23]: 0.19% | viability, T/C [24]: 0.17% | viability, T/C [7]: 114% | viability, T/C [25]: 88.8% | viability, T/C [8]: 70.9% | viability, T/C [26]: 12.5% | viability, T/C [27]: 0.21% | viability, T/C [28]: 0.2% | viability, T/C [9]: 91.2% | viability, T/C [29]: 98.4% | viability, T/C [10]: 84.5% | viability, T/C [30]: 9.67% | viability, T/C [31]: 0.25% | viability, T/C [32]: 0.2% | viability, T/C [11]: 83.2% | viability, T/C [33]: 73.6% | viability, T/C [12]: 57.7% | viability, T/C [34]: 12.3% | viability, T/C [35]: 0.25% | viability, T/C [36]: 0.22%

CC1COCCN1c1cc(C2(O)CC3CCC(C2)O3)c2cnn(-c3ccn[nH]3)c2n1 (stereo unspecified) + CN(C)c1ccc(Nc2c3ccc(NC(=O)CCN4CCCC4)cc3nc3cc(NC(=O)CCN4CCCC4)ccc23)cc1
IC50 (second compound 0.0316 µM): 101 nM | IC50 (second compound 0.1 µM): 120 nM | IC50 (second compound 0.316 µM): 98.5 nM | IC50 (second compound 1 µM): 91 nM | IC50 (second compound 3.16 µM): 125 nM | IC50 (second compound 10 µM): 99.6 nM | viability, T/C [1]: 79.4% | viability, T/C [13]: 49.7% | viability, T/C [2]: 25.9% | viability, T/C [14]: 9.43% | viability, T/C [15]: 12% | viability, T/C [16]: 7.83% | viability, T/C [3]: 66% | viability, T/C [17]: 56.1% | viability, T/C [4]: 16.4% | viability, T/C [18]: 9.58% | viability, T/C [19]: 11.2% | viability, T/C [20]: 8.08% | viability, T/C [5]: 70.3% | viability, T/C [21]: 49.6% | viability, T/C [6]: 23% | viability, T/C [22]: 10.9% | viability, T/C [23]: 9.72% | viability, T/C [24]: 8.92% | viability, T/C [7]: 80.3% | viability, T/C [25]: 47.1% | viability, T/C [8]: 21.6% | viability, T/C [26]: 9.7% | viability, T/C [27]: 10.3% | viability, T/C [28]: 8.64% | viability, T/C [9]: 72.2% | viability, T/C [29]: 54.2% | viability, T/C [10]: 30% | viability, T/C [30]: 10.4% | viability, T/C [31]: 11.8% | viability, T/C [32]: 7.71% | viability, T/C [11]: 67.1% | viability, T/C [33]: 50.2% | viability, T/C [12]: 21.1% | viability, T/C [34]: 11.6% | viability, T/C [35]: 9.48% | viability, T/C [36]: 6.52%
